Where no end group is shown, it is not given here.
Columns and labels:
XBP1/CREBZF heterodimer = biological target: T1, XBP1/CREBZF heterodimer (Homo sapiens, UniProt P17861); test: Competition FRET assay; format: binding; conditions: 23°C; 10 nM XBP1 (fluorescein) with 50 nM CREBZF (TAMRA); unlabeled design
T1 construct: made in house
Description: (§1) In the competition form of the assay, a FRET pair was made by mixing 10 nM of the donor-labeled peptide with a specified concentration of the acceptor-labeled peptide in 1 mM TCEP-HCl, and 20 μL of this solution was added to the wells after unlabeled design was titrated in 2-fold dilutions over the wells to a final concentration ranging from 0 to 2.5 μM. The amount of acceptor used varied for each curve, taking into account the Kd of the FRET complex in order to obtain a good lower baseline for fitting purposes. Samples were equilibrated for one hour before reading the plates; repeated reading of the plates over several hours gave no change in signal.
(§2) For the competition experiments, the IC50 was determined in MATLAB by fitting the binding data to the equation signal=a+b−a/(1+x/c)^H , where a and b are the lower and upper baselines, c is the IC50 value, x is the inhibitor concentration, and the Hill coefficient H was set to 1. Ki values were calculated as in Fu et al..

ATF4/FOS heterodimer = biological target: T2, ATF4/FOS heterodimer (Homo sapiens, UniProt P18848); test: Competition FRET assay; format: binding; conditions: 37°C; 10 nM ATF4 (fluorescein) with 200 nM FOS (TAMRA); unlabeled design
T2 construct: made in house
Description: as §1, §2

[1] = biological target: the molecule itself; test: FRET or BRET; direct-binding FRET of the designed peptide with itself (row 'homodimer'; dimer to monomers); acceptor-labelled design titrated into donor-labelled design by note 1 of the tables; 4 °C
ATF6B = ATF6B (Homo sapiens, UniProt Q99941); test: FRET or BRET; direct-binding FRET in 384-well plates; rhodamine-labelled design (acceptor) titrated 0 to 1 uM into 10 nM fluorescein-labelled bZIP (donor); 150 mM KCl, 50 mM potassium phosphate pH 7.4, 0.1% Tween-20, 0.1% BSA; 4 °C
Sequence of ATF6B (Q99941 whole entry): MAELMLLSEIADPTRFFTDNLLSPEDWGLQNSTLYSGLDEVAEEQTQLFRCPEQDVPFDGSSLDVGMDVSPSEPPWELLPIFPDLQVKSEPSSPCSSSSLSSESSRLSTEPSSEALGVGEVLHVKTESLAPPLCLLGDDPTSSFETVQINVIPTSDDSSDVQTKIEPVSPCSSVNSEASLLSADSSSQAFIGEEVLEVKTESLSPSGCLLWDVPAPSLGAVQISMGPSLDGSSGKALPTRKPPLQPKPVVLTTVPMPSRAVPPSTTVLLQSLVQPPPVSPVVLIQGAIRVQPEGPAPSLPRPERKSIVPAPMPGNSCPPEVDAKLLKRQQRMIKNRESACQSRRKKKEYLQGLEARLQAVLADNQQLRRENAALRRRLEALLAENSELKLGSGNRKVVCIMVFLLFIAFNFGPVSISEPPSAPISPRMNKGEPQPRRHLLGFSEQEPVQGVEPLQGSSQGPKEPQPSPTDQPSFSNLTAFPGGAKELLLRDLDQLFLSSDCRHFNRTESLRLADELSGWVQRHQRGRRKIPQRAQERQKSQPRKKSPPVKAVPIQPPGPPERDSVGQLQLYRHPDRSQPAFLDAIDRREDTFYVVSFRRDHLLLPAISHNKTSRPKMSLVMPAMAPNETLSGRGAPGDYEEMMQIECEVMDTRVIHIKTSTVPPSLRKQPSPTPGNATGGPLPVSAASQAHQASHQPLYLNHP

EREAQLENRVAHLKEKNQELKAQNLHLKEALSEAQNRNQELKNDA [XBP1-d1]
IC50 (XBP1/CREBZF heterodimer): 136 nM

NQIKTLRTRLSKLRKDNLQLEKDIANLERKAKDLRAEKEQLEYEL [ATF4-d1]
IC50 (ATF4/FOS heterodimer): 279 nM

B1: ATF4-d1 labeled at the C-terminus (designed binder)
chain: GESKEYKKGSGSNQIKTLRTRLSKLRKDNLQLEKDIANLERKAKDLRAEKEQLEYELGC
modifications: also: C59 label by assay: Rhodamine Red C2-maleimide or fluorescein-5-maleimide
notes: solubility linker after the His6 tag; added to the C-terminus for labeling; one molecule for the rhodamine- and the fluorescein-labelled form; the assay tells which label stood there; also called ATF4-d1-Rhodamine; ATF4-d1-FITC; source: E. coli RP3098, purified (Ni-NTA under denaturing conditions, reverse-phase HPLC)
Kd [1]: 1 nM | Kd (ATF6B): 1000 nM
